Measurements published in paper PMC4522657, “Identification of a DYRK1A Inhibitor that Induces Degradation of the Target Kinase using Co-chaperone CDC37 fused with Luciferase nanoKAZ” (Scientific Reports, 2015).

What was measured:
Experiment in all cases: Kinase panel, CaNDY 1 µM
Format in all cases: biochemical
Details in all cases: CaNDY 1 µM relative to DMSO
AMPKα2/β1/γ1 = target: T1, AMPKα2/β1/γ1 (Homo sapiens, UniProt P54646)
T1 construct: purchased Carna Biosciences
How it was run: (§1)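 Inhibition values reflect the P/(P + substrate) ratio in treated versus compound-free wells, measured after electrophoretic separation. Assays ran for an hour at room temperature with DMSO held at 1%, using baculovirus-expressed, GST-tagged full-length human kinases.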

AXL = target: T2, AXL (Homo sapiens, UniProt P30530)
T2 construct: purchased Carna Biosciences
How it was run: as §1

BRAF_Cascade = target: T3, BRAF_Cascade (Homo sapiens, UniProt P15056)
T3 construct: purchased Carna Biosciences
How it was run: as §1

BRK = target: T4, BRK (Homo sapiens, UniProt Q13882)
T4 construct: purchased Carna Biosciences
How it was run: as §1

CDK9/CycT1 = target: T5, CDK9/CycT1 (Homo sapiens, UniProt P50750)
T5 construct: purchased Carna Biosciences
How it was run: as §1

CHK2 = target: T6, CHK2 (Homo sapiens, UniProt O96017)
T6 construct: purchased Carna Biosciences
T6 sequence (O96017 whole entry): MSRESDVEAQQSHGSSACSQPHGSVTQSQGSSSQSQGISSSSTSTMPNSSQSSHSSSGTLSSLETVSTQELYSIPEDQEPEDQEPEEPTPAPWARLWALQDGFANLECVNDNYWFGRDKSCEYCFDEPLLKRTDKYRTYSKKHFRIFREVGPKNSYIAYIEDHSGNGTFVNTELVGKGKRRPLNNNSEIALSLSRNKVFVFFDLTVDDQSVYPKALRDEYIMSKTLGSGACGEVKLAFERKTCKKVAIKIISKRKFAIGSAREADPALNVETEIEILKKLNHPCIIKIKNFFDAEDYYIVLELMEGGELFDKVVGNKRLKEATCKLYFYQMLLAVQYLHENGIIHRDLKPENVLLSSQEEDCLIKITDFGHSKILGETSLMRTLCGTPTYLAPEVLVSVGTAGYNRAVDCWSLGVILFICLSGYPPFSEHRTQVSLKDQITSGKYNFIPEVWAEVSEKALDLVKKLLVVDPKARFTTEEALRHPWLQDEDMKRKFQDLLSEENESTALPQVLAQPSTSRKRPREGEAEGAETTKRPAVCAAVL
How it was run: as §1

CK1α = target: T7, CK1α (Homo sapiens, UniProt P48729)
T7 construct: purchased Carna Biosciences
How it was run: as §1

CSK = target: T8, CSK (Homo sapiens, UniProt P41240)
T8 construct: purchased Carna Biosciences
How it was run: as §1

DCAMKL2 = target: T9, DCAMKL2 (Homo sapiens, UniProt Q8N568)
T9 construct: purchased Carna Biosciences
How it was run: as §1

EGFR(L861Q) = target: T10, EGFR(L861Q) (Homo sapiens, UniProt P00533, L861Q)
T10 construct: purchased Carna Biosciences
How it was run: as §1

FES = target: T11, FES (Homo sapiens, UniProt P07332)
T11 construct: purchased Carna Biosciences
How it was run: as §1

FGFR2 = target: T12, FGFR2 (Homo sapiens, UniProt P21802)
T12 construct: purchased Carna Biosciences
How it was run: as §1

HIPK1 = target: T13, HIPK1 (Homo sapiens, UniProt Q86Z02)
T13 construct: purchased Carna Biosciences
T13 sequence (Q86Z02 whole entry): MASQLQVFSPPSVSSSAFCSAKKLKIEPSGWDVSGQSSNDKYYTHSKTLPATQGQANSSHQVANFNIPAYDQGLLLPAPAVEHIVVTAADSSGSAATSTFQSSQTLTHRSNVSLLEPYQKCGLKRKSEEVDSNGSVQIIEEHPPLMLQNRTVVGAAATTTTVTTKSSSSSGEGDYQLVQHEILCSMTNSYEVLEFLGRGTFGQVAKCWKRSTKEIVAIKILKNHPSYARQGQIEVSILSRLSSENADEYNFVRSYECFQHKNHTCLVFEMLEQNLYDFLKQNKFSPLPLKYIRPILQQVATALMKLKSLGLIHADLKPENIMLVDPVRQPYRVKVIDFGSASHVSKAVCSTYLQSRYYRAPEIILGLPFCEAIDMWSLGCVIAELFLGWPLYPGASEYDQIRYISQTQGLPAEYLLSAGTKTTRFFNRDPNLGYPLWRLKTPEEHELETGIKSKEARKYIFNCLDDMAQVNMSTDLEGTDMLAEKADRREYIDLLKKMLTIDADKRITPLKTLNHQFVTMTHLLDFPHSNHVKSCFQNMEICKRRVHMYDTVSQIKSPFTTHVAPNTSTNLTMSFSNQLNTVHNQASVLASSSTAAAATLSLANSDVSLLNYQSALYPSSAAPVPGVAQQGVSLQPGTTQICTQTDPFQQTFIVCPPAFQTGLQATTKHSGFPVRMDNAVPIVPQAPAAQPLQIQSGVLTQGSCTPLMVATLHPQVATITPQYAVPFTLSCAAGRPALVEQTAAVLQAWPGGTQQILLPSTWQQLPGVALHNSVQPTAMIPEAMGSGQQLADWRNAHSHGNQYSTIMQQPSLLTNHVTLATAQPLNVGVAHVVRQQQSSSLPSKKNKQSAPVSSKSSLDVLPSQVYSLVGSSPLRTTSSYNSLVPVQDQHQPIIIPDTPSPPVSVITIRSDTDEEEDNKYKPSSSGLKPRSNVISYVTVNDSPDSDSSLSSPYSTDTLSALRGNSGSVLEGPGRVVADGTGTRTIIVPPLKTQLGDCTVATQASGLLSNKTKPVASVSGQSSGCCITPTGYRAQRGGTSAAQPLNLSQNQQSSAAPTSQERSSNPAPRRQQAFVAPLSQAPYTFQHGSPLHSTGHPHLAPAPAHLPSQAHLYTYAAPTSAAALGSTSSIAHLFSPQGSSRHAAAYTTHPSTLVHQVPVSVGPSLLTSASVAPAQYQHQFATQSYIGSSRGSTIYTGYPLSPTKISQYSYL
How it was run: as §1

IKKα = target: T14, IKKα (Homo sapiens, UniProt O15111)
T14 construct: purchased Carna Biosciences
How it was run: as §1

ITK = target: T15, ITK (Homo sapiens, UniProt Q08881)
T15 construct: purchased Carna Biosciences
How it was run: as §1

MAP3K3_Cascade = target: T16, MAP3K3_Cascade (Homo sapiens, UniProt Q99759)
T16 construct: purchased Carna Biosciences
How it was run: as §1

MAPKAPK5 = target: T17, MAPKAPK5 (Homo sapiens, UniProt Q8IW41)
T17 construct: purchased Carna Biosciences
How it was run: as §1

MGC42105 = target: T18, MGC42105 (Homo sapiens, UniProt Q8IY84)
T18 construct: purchased Carna Biosciences
How it was run: as §1

MNK1 = target: T19, MNK1 (Homo sapiens, UniProt Q9BUB5)
T19 construct: purchased Carna Biosciences
How it was run: as §1

MSSK1 = target: T20, MSSK1 (Homo sapiens, UniProt Q9UPE1)
T20 construct: purchased Carna Biosciences
T20 sequence (Q9UPE1 whole entry): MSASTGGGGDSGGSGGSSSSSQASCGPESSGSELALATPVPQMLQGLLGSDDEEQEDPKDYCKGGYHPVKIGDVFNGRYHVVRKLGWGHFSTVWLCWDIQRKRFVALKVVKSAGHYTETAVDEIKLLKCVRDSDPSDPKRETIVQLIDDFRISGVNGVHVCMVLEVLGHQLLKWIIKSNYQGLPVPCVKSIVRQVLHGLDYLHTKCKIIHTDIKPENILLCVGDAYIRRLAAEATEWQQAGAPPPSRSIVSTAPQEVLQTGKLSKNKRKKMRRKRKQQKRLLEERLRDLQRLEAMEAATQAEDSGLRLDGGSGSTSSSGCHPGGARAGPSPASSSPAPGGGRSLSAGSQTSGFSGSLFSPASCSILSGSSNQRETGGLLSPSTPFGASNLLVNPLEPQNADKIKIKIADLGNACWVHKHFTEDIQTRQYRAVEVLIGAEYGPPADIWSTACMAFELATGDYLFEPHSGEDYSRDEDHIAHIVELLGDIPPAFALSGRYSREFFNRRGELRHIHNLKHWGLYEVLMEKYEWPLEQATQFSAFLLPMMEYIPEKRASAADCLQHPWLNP
How it was run: as §1

MST2 = target: T21, MST2 (Homo sapiens, UniProt Q13188)
T21 construct: purchased Carna Biosciences
How it was run: as §1

MST3 = target: T22, MST3 (Homo sapiens, UniProt Q9Y6E0)
T22 construct: purchased Carna Biosciences
How it was run: as §1

PEK = target: T23, PEK (Homo sapiens, UniProt Q9NZJ5)
T23 construct: purchased Carna Biosciences
How it was run: as §1

PGK = target: T24, PGK (Homo sapiens, UniProt Q13976)
T24 construct: purchased Carna Biosciences
How it was run: as §1

PKACβ = target: T25, PKACβ (Homo sapiens, UniProt P22694)
T25 construct: purchased Carna Biosciences
How it was run: as §1

PKACγ = target: T26, PKACγ (Homo sapiens, UniProt P22612)
T26 construct: purchased Carna Biosciences
How it was run: as §1

PKCδ = target: T27, PKCδ (Homo sapiens, UniProt Q05655)
T27 construct: purchased Carna Biosciences
T27 sequence (Q05655 whole entry): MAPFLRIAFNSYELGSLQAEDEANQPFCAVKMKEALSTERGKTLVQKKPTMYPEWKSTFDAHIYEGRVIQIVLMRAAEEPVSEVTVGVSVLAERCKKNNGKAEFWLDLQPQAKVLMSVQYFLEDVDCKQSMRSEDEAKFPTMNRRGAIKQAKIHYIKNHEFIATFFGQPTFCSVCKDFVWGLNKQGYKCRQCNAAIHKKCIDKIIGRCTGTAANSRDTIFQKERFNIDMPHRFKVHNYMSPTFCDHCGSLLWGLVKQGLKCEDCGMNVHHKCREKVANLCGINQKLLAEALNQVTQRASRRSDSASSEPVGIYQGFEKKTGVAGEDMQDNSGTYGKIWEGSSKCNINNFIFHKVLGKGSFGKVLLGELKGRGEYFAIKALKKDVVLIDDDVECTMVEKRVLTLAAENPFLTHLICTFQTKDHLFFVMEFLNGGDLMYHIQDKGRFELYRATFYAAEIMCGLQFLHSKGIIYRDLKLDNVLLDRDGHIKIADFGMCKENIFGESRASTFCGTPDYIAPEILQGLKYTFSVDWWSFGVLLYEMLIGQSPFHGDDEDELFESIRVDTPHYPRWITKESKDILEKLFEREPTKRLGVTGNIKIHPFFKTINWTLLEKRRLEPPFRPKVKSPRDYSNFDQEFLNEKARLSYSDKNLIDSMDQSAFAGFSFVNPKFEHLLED
How it was run: as §1

PKCι = target: T28, PKCι (Homo sapiens, UniProt P41743)
T28 construct: purchased Carna Biosciences
T28 sequence (P41743 whole entry): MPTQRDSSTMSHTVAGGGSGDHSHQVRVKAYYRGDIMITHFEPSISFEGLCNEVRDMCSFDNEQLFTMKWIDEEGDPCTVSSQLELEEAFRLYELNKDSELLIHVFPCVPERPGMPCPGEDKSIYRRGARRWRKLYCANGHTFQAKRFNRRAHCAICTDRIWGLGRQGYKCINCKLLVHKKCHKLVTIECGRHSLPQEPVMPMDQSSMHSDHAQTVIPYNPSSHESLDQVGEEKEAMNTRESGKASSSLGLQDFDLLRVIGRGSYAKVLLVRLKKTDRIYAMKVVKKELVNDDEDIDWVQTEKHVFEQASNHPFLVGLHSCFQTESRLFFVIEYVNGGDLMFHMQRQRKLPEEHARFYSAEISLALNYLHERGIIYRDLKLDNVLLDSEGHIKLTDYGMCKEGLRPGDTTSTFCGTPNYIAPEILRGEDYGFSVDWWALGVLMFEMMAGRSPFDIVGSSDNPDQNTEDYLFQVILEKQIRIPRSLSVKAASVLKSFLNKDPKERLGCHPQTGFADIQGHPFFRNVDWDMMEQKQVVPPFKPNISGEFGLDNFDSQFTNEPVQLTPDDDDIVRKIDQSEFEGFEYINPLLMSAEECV
How it was run: as §1

RET(G691S) = target: T29, RET(G691S) (Homo sapiens, UniProt P07949, G691S)
T29 construct: purchased Carna Biosciences
How it was run: as §1

ROCK2 = target: T30, ROCK2 (Homo sapiens, UniProt O75116)
T30 construct: purchased Carna Biosciences
How it was run: as §1

SRC = target: T31, SRC (Homo sapiens, UniProt P12931)
T31 construct: purchased Carna Biosciences
T31 sequence (P12931 whole entry): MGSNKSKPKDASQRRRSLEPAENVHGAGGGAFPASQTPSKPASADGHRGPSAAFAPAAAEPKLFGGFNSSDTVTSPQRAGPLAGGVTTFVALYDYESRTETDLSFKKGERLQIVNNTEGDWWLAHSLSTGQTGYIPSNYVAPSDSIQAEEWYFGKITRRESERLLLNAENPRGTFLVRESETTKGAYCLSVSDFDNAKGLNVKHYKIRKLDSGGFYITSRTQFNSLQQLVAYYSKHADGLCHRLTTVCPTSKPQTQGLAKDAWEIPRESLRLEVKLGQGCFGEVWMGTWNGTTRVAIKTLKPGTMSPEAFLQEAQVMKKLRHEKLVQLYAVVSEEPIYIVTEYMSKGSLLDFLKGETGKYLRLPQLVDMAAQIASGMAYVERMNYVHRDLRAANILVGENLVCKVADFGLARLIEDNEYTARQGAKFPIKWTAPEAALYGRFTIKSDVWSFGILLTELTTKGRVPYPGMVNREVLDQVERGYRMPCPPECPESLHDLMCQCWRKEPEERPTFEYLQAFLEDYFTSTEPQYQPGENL
How it was run: as §1

SRM = target: T32, SRM (Homo sapiens, UniProt Q9H3Y6)
T32 construct: purchased Carna Biosciences
How it was run: as §1

SRPK1 = target: T33, SRPK1 (Homo sapiens, UniProt Q96SB4)
T33 construct: purchased Carna Biosciences
How it was run: as §1

TEC = target: T34, TEC (Homo sapiens, UniProt P42680)
T34 construct: purchased Carna Biosciences
How it was run: as §1

ZAP70 = target: T35, ZAP70 (Homo sapiens, UniProt P43403)
T35 construct: purchased Carna Biosciences
T35 sequence (P43403 whole entry): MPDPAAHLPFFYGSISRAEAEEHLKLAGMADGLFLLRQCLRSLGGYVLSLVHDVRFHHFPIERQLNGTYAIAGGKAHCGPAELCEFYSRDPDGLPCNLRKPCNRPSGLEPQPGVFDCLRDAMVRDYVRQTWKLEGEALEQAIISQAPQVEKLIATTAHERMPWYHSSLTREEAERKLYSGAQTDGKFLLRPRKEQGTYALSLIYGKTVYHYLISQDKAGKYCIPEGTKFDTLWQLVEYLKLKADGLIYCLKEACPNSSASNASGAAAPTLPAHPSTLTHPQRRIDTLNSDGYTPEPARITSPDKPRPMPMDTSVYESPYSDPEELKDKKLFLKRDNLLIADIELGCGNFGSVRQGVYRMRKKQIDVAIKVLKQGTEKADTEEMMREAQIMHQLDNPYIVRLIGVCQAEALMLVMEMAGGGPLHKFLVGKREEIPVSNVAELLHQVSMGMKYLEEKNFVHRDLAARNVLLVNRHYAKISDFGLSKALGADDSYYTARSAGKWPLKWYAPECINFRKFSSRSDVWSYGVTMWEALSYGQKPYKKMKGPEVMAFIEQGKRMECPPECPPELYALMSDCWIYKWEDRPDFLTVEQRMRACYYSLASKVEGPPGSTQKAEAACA
How it was run: as §1

p38β = target: T36, p38β (Homo sapiens, UniProt Q15759)
T36 construct: purchased Carna Biosciences
How it was run: as §1

## [H]/N=C1/NC(=O)C(=Cc2ccc3c(c2)CCO3)S1 [CaNDY, (Z)-5-[(2,3-dihydrobenzofuran-5-yl)methylene]-2-iminothiazolidin-4-one]
AMPKα2/β1/γ1
  remaining activity at 1 µM: 97.5%
AXL
  remaining activity at 1 µM: 103%
BRAF_Cascade
  remaining activity at 1 µM: 108%
BRK
  remaining activity at 1 µM: 95.4%
CDK9/CycT1
  remaining activity at 1 µM: 19.4%
CHK2
  remaining activity at 1 µM: 97.2%
CK1α
  remaining activity at 1 µM: 73.6%
CSK
  %Activity: 99.7%
DCAMKL2
  remaining activity at 1 µM: 102%
EGFR(L861Q)
  %Activity: 103.3%
FES
  remaining activity at 1 µM: 109%
FGFR2
  remaining activity at 1 µM: 104%
HIPK1
  remaining activity at 1 µM: 30.9%
IKKα
  remaining activity at 1 µM: 95.7%
ITK
  %Activity: 99.9%
MAP3K3_Cascade
  remaining activity at 1 µM: 104%
MAPKAPK5
  remaining activity at 1 µM: 95.5%
MGC42105
  remaining activity at 1 µM: 102%
MNK1
  remaining activity at 1 µM: 94.6%
MSSK1
  remaining activity at 1 µM: 98%
MST2
  remaining activity at 1 µM: 103%
MST3
  %Activity: 100.2%
PEK
  remaining activity at 1 µM: 90.4%
PGK
  remaining activity at 1 µM: 92.8%
PKACβ
  remaining activity at 1 µM: 92.5%
PKACγ
  remaining activity at 1 µM: 78.2%
PKCδ
  remaining activity at 1 µM: 74.1%
PKCι
  remaining activity at 1 µM: 101%
RET(G691S)
  remaining activity at 1 µM: 102%
ROCK2
  remaining activity at 1 µM: 103%
SRC
  remaining activity at 1 µM: 102%
SRM
  remaining activity at 1 µM: 77%
SRPK1
  remaining activity at 1 µM: 101%
TEC
  remaining activity at 1 µM: 103%
ZAP70
  remaining activity at 1 µM: 95.7%
p38β
  remaining activity at 1 µM: 99.7%
